Literature values, collected in patent publication US6874277B2, “Method and composition for promoting and controlling growth of plants” (priority 1988, dated 2005).
Like-named read-outs stand apart in the source and are kept apart here.

System: tomato variety San Jose Extra Early
Parameters: Dry wt increase: unit not given here
Conditions: duration 21 days

OC[C@H]1O[C@@](CO)(O[C@H]2O[C@H](CO)[C@@H](O)[C@H](O)[C@H]2O)[C@@H](O)[C@@H]1O [10% sucrose solution, sucrose]
Dry wt increase (1 spray): 16 | Mean total dry wt (1 spray, 0 sprays 188): 204 mg | Dry wt increase (2 sprays): 41 | Mean total dry wt (2 sprays): 229 mg | Dry wt increase (3 sprays): 50 | Mean total dry wt (3 sprays): 238 mg | Dry wt increase (5 sprays): 93 | Mean total dry wt (5 sprays): 281 mg | Dry wt increase (10 sprays): 163 | Mean total dry wt (10 sprays): 352 mg | Dry wt increase (20 sprays): 408 | Mean total dry wt (20 sprays): 596 mg
